Test results as given in US8629251B2, “Specific detection and quantification of phosphatidic acid using an Arabidopsis trigalactosyldiacylglycerol-4 (TGD4) protein” (Board of Trustees of Michigan State University, priority 2008, dated 2014).

Columns and labels:
[1] = target: T1, Arabidopsis TGD4, DsRED-TGD4-His, full-length TGD4 1-479 (SEQ ID NO: 132) (Arabidopsis thaliana, UniProt Q9M903); assay: Liposome association assay, DsRED-TGD4-His; type: binding; settings: 40 mol % PtdOH and 60 mol % PtdCho liposomes, FIG. 18C, D
T1 sequence (Q9M903 1-479): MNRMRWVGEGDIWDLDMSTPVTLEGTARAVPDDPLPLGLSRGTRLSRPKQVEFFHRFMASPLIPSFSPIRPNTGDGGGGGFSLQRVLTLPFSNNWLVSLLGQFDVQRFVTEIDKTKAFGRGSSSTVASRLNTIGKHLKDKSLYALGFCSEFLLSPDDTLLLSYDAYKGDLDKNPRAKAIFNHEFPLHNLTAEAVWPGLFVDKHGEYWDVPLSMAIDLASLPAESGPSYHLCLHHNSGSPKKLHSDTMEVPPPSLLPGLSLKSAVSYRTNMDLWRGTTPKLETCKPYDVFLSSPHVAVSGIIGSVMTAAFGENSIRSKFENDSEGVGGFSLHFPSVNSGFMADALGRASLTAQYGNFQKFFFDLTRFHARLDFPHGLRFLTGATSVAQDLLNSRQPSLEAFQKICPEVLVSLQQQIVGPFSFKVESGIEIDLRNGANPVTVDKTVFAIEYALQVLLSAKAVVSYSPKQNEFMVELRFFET
Method: Liposome Association Assay:
The liposome association assay was adapted from (Awai et al., 2006, Lu and Benning, 2009) with minor modifications. Dioleoyl-PtdCho and PtdOH with different acyl chain lengths and desaturation levels were used for making liposomes. In other liposomes 1-palmitoyl-2-(12-((7-nitro-2-1,3-benzoxadiazol-4-yl)amino)dodecanoyl)-sn-glycero-3-phosphate (NBD-PtdOH; Avanti, Alabaster, Ala.) was used. The lipids were mixed at indicated ratios to give a total lipid amount of 250 μg. The lipids were dried under a stream of nitrogen, resuspended in 0.5 ml TBS buffer with 0.2 M choline chloride and hydrated at 37° C. for 1 hour followed by vigorous vortexing for 2 minutes. The resulting multi-lamellar vesicles were centrifuged at 13,000×g for 10 minutes and then washed once with TBS buffer containing 0.2 M choline chloride. The liposomes were resuspended into 100 μl TBS buffer with 0.2 M choline chloride and incubated with 2 μg purified DsRED-TGD4-His protein and its derivatives. The protein liposome mixture was incubated on ice for 30 minutes followed by centrifugation at 13,000×g for 10 minutes and two washes with 500 μl TBS containing 0.2 M choline chloride. The resulting protein-liposome pellet was resuspended in 20 μl 2× Laemmli buffer (Laemmli, 1970) and processed by SDS-PAGE (Shapiro and Maizel, 1969).

[2] = target: T2, DsRED-TGD4-His (Arabidopsis thaliana, UniProt Q9M903); assay: Precipitation / stabilizer test of DsRED-TGD4-His; type: physicochemical; settings: 5 μg protein with stabilizer, 4° C., 2 hours, 13,000×g pellet by SDS-PAGE
T2 construct: the DsRED protein was fused to the N-terminus of the full-length TGD4 protein; made in house; host or cells: E. coli BL21 (DE3)
T2 sequence (Q9M903 1-479): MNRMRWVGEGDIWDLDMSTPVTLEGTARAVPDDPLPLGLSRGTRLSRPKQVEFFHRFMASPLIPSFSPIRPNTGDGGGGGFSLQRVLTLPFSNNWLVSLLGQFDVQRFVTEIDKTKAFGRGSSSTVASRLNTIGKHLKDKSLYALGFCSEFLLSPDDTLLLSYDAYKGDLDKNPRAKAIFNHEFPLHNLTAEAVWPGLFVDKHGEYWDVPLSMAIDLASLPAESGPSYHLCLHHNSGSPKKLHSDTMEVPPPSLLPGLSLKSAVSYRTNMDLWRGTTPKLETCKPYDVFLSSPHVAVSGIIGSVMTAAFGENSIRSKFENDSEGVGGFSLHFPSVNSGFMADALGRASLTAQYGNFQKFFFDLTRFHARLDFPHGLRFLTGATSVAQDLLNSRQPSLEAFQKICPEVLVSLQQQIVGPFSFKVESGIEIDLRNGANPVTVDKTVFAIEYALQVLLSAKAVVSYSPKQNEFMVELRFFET
Method: FIG. 23A: 5 μg DsRED-TGD4-His was incubated with various protein stabilizers at 4° C. for 2 hours followed by centrifugation at 13,000×g for 10 minutes. The pellet was analyzed by SDS-PAGE. TBS: Tris-buffered saline, Glycerol: 20% glycerol; PEG: 20% polyethylene; Pectin: 5% pectin; ChoCl: 1 M choline chloride; Glycine: 1 M glycine; Urea: 1 M urea; BSA: 0.5 mg/ml bovine serum albumin; PBS: phosphate-buffered saline.
FIG. 23B: 5 μg DsRED-TGD4-His was treated with either 2 M sodium chloride or choline chloride as described above.
Lipid binding properties of TGD4 were investigated by producing TGD4 fused to DsRED. The DsRED protein is a red fluorescent protein of the coral Discosoma sp. (Gross et al., 2000, herein incorporated by reference).

[3] = target: T3, Arabidopsis TGD2, N-terminally truncated TGD2-dTMD-His (from Gly-119) (Arabidopsis thaliana, UniProt Q9LTR2); assay: Liposome binding assay, TGD2-dTMD-His; settings: phosphatidylcholine liposomes with or without PA (6:4 wt/wt)
T3 sequence (Q9LTR2 119-381): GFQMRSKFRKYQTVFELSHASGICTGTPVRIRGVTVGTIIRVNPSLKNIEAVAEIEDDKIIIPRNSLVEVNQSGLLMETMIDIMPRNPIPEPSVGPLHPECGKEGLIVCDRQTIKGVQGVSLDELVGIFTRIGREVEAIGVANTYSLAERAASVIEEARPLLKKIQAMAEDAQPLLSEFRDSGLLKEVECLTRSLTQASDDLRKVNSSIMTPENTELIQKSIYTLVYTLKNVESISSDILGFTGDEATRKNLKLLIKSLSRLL
Method: The liposome binding assay was performed as previously reported. Sano et al., (1998) J. Biol. Chem. 273:4783-4789. Lipids (i.e., for example, phosphatidylcholine or a mixture of phosphatidylcholine and PA at 6:4 wt/wt) were incubated in TBS (50 mM Tris/HCl, pH 7/0.1M NaCl) at 37° C. for 1 hour followed by vigorous vortexing for 5 min. The liposomes were precipitated at 20,000×g and washed twice with ice-cold TBS.
Liposomes (200 μg) were mixed with purified TGD2 protein lacking the TMD (10 μg/ml) and TBS to make 100 μl of solution. The mixture was incubated at 30° C. for 30 min and washed twice with ice-cold TBS by centrifugation at 20,000×g at 4° C. The liposome pellet mixed with sample buffer was analyzed by SDS/PAGE. Laemmli, U. K. (1970) Nature 227, 680-685. Immunodetection of the His-tagged protein was accomplished by using the above-mentioned Penta-His antibody at 1:6,000 and the anti-mouse antibody at 1:10,000 dilutions. The BCIP/NBT Kit from Bio-Rad was used for color detection.

[4] = target: T4, Arabidopsis TGD2, DsRed-TGD2C WT (DR-WT) fusion protein, residues 119-381, SEQ ID NO:107 (Arabidopsis thaliana, UniProt Q9LTR2); assay: Liposome-association assay (mixed PA/PC liposomes), DsRed-TGD2C WT; type: binding; settings: PC, PA/PC or PA liposomes, FIG. 3B
T4 construct: made in house; host or cells: Escherichia coli BL21 (DE3)
T4 sequence (Q9LTR2 119-381): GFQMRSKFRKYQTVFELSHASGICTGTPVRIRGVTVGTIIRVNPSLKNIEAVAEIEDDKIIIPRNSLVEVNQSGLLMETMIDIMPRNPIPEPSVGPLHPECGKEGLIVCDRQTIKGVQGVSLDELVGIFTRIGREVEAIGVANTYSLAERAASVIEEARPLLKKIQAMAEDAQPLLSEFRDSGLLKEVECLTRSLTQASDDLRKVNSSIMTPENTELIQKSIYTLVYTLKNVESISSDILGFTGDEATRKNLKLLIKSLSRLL
Method: FIG. 2A: Analysis by liposome-association assay. A mixture of dioleoyl-PA and dioleoyl-PC was used where the weight percent of PA was varied from 0-100% (wt/wt), maintaining the total lipid invariant at 250 μg. 1 μg protein was used. P, protein recovered in the absence of lipids.
In this assay, purified recombinant proteins were incubated with liposomes for 30 min at 30° C. before centrifugation at 20,000 g for 10 min to pellet the liposomes. Proteins bound to the liposomes were found associated with the lipid pellet, whereas non-binding proteins remained in the supernatant. In an effort to determine the optimal concentration of PA required for high specificity binding, a PA/PC liposome mixture containing varying weight fractions of PA was prepared and incubated with DsRed-TGD2CWT or DsRed alone.
(§1) The liposome association assay was performed as previously reported. (31). Briefly, lipids (dioleoyl-phosphatidylcholine, DOPC or dioleoyl-PA, DOPA) were incubated in TBS (50 mM Tris-HCl, pH 7; 0.1 M NaCl) at 37° C. for an hour followed by vigorous vortexing for 5 min. The liposomes were precipitated at 20,000 g and washed twice with ice-cold TBS.
(§2) Liposomes (200 μg) were mixed with purified DsRed-TGD2 fusion protein and TBS to make a final 100 μL solution. The mixture was incubated at 30° C. for 30 min and washed twice with ice-cold TBS by centrifugation at 20,000 g at 4° C. The liposome pellet mixed with sample buffer was analyzed by SDS-PAGE (28). Immuno-detection of the His-tagged protein was accomplished using the above mentioned Penta-His antibody at 1:15,000 and the anti mouse antibody at 1:75,000 dilution.
(§3) The protein band was visualized by chemiluminescent detection kit from Sigma. The autoradiography film was scanned, distinct protein bands were quantified using computer software Multi Gauge V3.0 (Fujifilm USA, Valhalla, N.Y.) and resulted data were plotted and analyzed by OriginPro8 (Origin lab corporation, Northampton, Mass.).

[5] = target: Arabidopsis TGD2, DsRed fusion of the 25-mer minimal domain (residues 201-225, SEQ ID NO:12), K221A (Arabidopsis thaliana, UniProt Q9LTR2, K221A); assay: Liposome-association assay, point mutant K221A of the minimal domain; type: binding; settings: PC liposomes; any of the constructs
Chain of Arabidopsis TGD2, DsRed fusion of the 25-mer minimal domain (residues 201-225, SEQ ID NO:12), K221A (Q9LTR2 201-225 K221A): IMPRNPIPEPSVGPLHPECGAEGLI
Method: Some reports have identified that TGD2 PA-binding regions involve basic amino acids and/or tryptophan residues (10). […] Based on sequence similarity of TGD2 to its closely related homologs in plants and green algae, several charged and/or conserved amino acids were picked as potential interesting residues in the 25-mer minimal domain for possibly mediating interactions with PA. An alanine screen was then performed to evaluate these residues within a minimal PA binding region of TGD2 (i.e., for example, SEQ ID NO:12). Point mutations were generated in the 25-mer minimal domain and fused with DsRed to test PA binding by liposome-association assay using 100% PA liposomes.
The liposome association assay was performed as previously reported. (31). […]
Liposomes (200 μg) were mixed with purified DsRed-TGD2 fusion protein and TBS to make a final 100 μL solution. […] The liposome pellet mixed with sample buffer was analyzed by SDS-PAGE (28). […]
as §3

[6] = system: DsRed protein (Discosoma sp. red fluorescent protein); assay: Liposome-association assay, DsRed control; type: binding; settings: FIG. 3B
Method: as §1, §2, §3

In the case of `CCCCCCCCCCCCCCCC(=O)OC[C@H](COP(=O)(O)O)OC(=O)CCCCCCCCCCCNc1ccc([N+](=O)[O-])c2nonc12` [1-palmitoyl-2-(12-((7-nitro-2-1,3-benzoxadiazol-4-yl)amino)dodecanoyl)-sn-glycero-3-phosphate], the “binding to PtdOH species in liposomes” value [1] is reported as “did not bind”.
For `C[N+](C)(C)CCO.[Cl-]` [Choline chloride, choline chloride], the “stabilization of DsRED-TGD4-His against precipitation” value (“stabilization of DsRED-TGD4-His” below) [2] was “minimize precipitation” and the “stabilization of DsRED-TGD4-His” value ([2]; listed as choline chloride) was “stabilized DsRED-TGD4-His”.
`[Cl-].[Na+]` [NaCl, sodium chloride] was tested, and the “stabilization of DsRED-TGD4-His” value [2] was “not able to stabilize DsRED-TGD4-His”.
`CCCCCCCC/C=C\CCCCCCCC(=O)OC[C@H](COP(=O)([O-])OCC[N+](C)(C)C)OC(=O)CCCCCCC/C=C\CCCCCCCC` [PC, phosphatidylcholine] was tested, and the liposome binding [3] was “did not bind”, the “binding to PA or PC” value [4] was “no interaction” and the PC-liposome binding [5] was “No detectable PC-liposome binding”. The “binding to PC or PA” value [6] was “does not display binding”.
